Data set [1] deals with HT-1080. As to the kind of experiment: Inhibition of NF-kappaB promoter activity in human HT1080 cells. It is filed as functional, cell-based.
For data set [2], the system named is MRC5. As to the kind of experiment: Toxicity against human MRC5 cells assessed as cell viability after 24 hrs by MTT assay. The following applies: mrc5, 24 h. It is filed as cell-based.
Data set [3] concerns HT-1080. The experiment in a line: Inhibition of MMP2 expression in human HT1080 cells. It is filed as functional, cell-based.
Data set [4] relates to HT-1080. The experiment in a line: Inhibition of PMA-stimulated activator protein-1 promotor activity in human HT1080 cells. It is filed as functional, cell-based.
Data set [5] deals with HT-1080. The experiment in a line: Inhibition of MMP9 expression in human HT1080 cells. It is filed as functional, cell-based.
Data set [6] deals with HT-1080. As to the kind of experiment: Toxicity against human HT1080 cells assessed as cell viability after 24 hrs by MTT assay. It is filed as cell-based. To be noted: ht-1080, 24 h. For orientation: Tetrazolium assays rely on reduction of a dye to a coloured formazan, in cell work by metabolically active cells.

The source made the active and inactive calls. The rule behind the calls is not given here.

On to `N[C@@H](C=O)[C@@H](O)[C@H](O)[C@H](O)COS(=O)(=O)O`, for which the Activity result in data set [1] is “Dose-dependent effect”; in data set [2], “Active”; in data set [3] it was “Dose-dependent effect”; in data set [5] it was “Dose-dependent effect”; in data set [6] it was “Active”. Besides, the result in data set [4] was inactive.
